What was measured:
[1] = target: Transient receptor potential cation channel subfamily V member 1 (Homo sapiens, UniProt Q8NER1); assay: Antagonist activity at human TRPV1 channel; assay type: functional
[2] = target: T1, Transient receptor potential cation channel subfamily A member 1 (Homo sapiens, UniProt O75762); assay: Antagonist activity at human TRPA1 channel assessed as inhibition of allyl isothiocyanate-induced intracellular calcium influx; assay type: functional, cell-based
[3] = target: T1, Transient receptor potential cation channel subfamily A member 1; assay: Antagonist activity at human TRPA1 channel assessed as inhibition of formalin-induced intracellular calcium influx; assay type: functional, cell-based
[4] = target: T1, Transient receptor potential cation channel subfamily A member 1; assay: Antagonist activity at human TRPA1 channel expressed in HEK293 cells assessed as inhibition of cinnamaldehyde-induced intracellular calcium influx by FLIPR; assay type: functional, cell-based
[5] = target: T1, Transient receptor potential cation channel subfamily A member 1; assay: Antagonist activity at human TRPA1 channel assessed as inhibition of nifedipine-induced intracellular calcium influx; assay type: functional, cell-based
[6] = target: Transient receptor potential cation channel subfamily M member 8 (Homo sapiens, UniProt Q7Z2W7); assay: Antagonist activity at human TRPM8 channel; assay type: functional
Sequence of Transient receptor potential cation channel subfamily M member 8 (Q7Z2W7 whole entry): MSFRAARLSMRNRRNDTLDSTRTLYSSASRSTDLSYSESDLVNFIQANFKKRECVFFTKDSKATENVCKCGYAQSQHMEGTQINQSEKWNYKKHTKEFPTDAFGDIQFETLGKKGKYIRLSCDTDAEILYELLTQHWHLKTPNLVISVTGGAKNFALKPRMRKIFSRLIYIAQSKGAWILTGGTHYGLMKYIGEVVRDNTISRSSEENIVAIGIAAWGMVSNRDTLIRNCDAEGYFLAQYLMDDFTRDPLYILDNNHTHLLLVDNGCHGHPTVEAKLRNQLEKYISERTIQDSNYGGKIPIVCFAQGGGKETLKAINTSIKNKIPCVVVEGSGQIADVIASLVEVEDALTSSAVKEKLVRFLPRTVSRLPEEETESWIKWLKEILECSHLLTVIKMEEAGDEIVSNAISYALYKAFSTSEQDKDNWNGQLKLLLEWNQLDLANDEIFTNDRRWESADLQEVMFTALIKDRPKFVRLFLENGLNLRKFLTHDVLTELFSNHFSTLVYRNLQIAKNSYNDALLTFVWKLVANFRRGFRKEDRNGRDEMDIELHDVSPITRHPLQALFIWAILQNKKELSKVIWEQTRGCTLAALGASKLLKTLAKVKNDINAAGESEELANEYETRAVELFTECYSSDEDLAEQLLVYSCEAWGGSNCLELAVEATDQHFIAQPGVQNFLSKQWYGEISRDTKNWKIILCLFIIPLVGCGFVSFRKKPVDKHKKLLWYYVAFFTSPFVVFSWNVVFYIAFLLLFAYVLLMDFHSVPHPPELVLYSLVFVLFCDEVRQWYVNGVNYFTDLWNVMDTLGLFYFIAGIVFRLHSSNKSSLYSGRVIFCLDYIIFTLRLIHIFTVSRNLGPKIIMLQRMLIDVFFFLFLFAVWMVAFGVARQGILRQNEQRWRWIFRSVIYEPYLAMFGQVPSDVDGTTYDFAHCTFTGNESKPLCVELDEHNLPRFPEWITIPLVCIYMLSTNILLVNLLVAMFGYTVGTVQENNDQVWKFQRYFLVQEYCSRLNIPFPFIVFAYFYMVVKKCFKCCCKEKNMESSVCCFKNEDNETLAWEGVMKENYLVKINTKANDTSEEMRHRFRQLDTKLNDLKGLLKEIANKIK

[7] = target: T1, Transient receptor potential cation channel subfamily A member 1; assay: Antagonist activity at human TRPA1 channel expressed in HEK293 cells assessed as inhibition of allyl isothiocyanate-induced intracellular calcium influx by FLIPR; assay type: functional, cell-based
[8] = target: T2, Transient receptor potential cation channel subfamily V member 3 (Homo sapiens, UniProt Q8NET8); assay: Antagonist activity at human TRPV3 channel; assay type: functional
T2 sequence (Q8NET8 whole entry): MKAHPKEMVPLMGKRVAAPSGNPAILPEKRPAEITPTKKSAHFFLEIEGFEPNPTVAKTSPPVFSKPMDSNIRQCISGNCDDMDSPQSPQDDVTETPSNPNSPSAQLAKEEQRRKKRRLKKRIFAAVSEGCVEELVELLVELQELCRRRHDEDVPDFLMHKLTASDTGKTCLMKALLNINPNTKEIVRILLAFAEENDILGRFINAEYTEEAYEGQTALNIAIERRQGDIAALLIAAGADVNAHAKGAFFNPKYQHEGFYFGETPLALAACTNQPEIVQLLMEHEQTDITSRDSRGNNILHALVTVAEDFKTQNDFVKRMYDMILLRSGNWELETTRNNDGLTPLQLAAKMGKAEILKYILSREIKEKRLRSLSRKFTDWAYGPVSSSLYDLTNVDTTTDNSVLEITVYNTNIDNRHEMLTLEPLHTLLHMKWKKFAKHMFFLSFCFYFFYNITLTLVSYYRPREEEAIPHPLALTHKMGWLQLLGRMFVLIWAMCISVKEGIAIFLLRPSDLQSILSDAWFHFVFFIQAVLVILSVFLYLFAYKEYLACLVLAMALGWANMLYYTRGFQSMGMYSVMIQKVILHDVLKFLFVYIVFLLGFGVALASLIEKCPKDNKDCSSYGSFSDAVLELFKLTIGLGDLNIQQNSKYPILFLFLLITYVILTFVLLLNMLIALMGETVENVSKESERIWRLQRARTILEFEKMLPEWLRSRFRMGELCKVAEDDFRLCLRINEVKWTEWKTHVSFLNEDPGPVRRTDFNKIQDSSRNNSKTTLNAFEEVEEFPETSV

[9] = target: T3, Transient receptor potential cation channel subfamily A member 1 (Mus musculus, UniProt Q8BLA8); assay: Activation of mouse TRPA1 channel
T3 sequence (Q8BLA8 whole entry): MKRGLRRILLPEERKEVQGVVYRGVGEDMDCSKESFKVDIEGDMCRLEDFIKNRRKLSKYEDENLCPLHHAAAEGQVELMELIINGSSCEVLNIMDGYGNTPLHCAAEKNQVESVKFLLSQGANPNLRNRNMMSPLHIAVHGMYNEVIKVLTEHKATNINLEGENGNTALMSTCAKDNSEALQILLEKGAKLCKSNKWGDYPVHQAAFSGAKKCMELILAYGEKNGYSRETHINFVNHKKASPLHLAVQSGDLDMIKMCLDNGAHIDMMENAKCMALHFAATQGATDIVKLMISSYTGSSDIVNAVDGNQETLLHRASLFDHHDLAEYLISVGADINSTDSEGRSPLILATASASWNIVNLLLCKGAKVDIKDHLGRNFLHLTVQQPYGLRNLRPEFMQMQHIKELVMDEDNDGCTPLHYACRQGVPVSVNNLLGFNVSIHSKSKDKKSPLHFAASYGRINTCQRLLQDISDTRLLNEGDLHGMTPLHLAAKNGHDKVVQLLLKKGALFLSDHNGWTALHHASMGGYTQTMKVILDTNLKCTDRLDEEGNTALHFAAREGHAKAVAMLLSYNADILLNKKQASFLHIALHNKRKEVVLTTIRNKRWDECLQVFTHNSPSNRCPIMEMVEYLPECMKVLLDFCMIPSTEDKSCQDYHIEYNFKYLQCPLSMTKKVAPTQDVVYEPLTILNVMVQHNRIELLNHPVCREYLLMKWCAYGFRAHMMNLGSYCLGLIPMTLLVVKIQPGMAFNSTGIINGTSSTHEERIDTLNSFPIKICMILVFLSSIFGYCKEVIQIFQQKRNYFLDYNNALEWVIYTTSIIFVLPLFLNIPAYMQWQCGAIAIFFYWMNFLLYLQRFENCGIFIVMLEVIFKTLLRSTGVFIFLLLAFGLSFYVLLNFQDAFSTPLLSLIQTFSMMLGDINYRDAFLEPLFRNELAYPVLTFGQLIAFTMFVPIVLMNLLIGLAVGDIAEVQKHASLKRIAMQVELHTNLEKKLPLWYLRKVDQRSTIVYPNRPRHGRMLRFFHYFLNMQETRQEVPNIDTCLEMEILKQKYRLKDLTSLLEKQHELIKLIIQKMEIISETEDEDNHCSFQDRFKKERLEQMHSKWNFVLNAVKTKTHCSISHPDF

[10] = target: Transient receptor potential cation channel subfamily V member 4 (Homo sapiens, UniProt Q9HBA0); assay: Antagonist activity at human TRPV4 channel; assay type: functional
Sequence of Transient receptor potential cation channel subfamily V member 4 (Q9HBA0 whole entry): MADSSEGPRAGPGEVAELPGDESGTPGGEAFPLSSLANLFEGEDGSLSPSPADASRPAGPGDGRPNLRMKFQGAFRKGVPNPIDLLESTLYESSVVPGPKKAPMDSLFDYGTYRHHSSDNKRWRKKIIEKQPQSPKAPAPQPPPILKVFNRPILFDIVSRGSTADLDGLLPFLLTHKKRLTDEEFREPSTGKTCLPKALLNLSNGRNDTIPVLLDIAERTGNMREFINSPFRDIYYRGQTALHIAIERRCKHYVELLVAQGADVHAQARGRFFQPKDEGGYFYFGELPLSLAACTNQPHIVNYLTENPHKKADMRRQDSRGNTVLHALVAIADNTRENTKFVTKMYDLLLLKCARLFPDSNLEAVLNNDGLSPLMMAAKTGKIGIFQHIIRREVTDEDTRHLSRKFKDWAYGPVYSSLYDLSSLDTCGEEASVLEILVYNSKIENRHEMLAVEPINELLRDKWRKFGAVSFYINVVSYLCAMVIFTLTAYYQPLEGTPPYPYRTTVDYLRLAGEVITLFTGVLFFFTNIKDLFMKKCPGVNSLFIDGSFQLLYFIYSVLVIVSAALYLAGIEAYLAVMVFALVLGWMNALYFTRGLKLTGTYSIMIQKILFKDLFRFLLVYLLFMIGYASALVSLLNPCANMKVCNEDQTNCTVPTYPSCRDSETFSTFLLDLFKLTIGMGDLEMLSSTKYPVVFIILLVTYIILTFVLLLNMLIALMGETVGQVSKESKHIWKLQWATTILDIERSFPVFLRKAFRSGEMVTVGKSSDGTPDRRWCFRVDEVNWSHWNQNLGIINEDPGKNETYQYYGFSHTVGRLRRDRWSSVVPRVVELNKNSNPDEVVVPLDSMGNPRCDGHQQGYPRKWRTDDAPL

[11] = target: T1, Transient receptor potential cation channel subfamily A member 1; assay: Antagonist activity at human TRPA1 channel assessed as inhibition of 4-hydroxy-2-nonenal-induced response; assay type: functional
[12] = target: T1, Transient receptor potential cation channel subfamily A member 1; assay: Antagonist activity at human TRPA1 channel expressed in CHO cells assessed as inhibition of cinnamaldehyde-induced intracellular calcium influx; assay type: functional, cell-based
[13] = target: T3, Transient receptor potential cation channel subfamily A member 1; assay: Antagonist activity at mouse TRPA1 channel expressed in CHO cells assessed as inhibition of cinnamaldehyde-induced intracellular calcium influx

T1 sequence (O75762 whole entry): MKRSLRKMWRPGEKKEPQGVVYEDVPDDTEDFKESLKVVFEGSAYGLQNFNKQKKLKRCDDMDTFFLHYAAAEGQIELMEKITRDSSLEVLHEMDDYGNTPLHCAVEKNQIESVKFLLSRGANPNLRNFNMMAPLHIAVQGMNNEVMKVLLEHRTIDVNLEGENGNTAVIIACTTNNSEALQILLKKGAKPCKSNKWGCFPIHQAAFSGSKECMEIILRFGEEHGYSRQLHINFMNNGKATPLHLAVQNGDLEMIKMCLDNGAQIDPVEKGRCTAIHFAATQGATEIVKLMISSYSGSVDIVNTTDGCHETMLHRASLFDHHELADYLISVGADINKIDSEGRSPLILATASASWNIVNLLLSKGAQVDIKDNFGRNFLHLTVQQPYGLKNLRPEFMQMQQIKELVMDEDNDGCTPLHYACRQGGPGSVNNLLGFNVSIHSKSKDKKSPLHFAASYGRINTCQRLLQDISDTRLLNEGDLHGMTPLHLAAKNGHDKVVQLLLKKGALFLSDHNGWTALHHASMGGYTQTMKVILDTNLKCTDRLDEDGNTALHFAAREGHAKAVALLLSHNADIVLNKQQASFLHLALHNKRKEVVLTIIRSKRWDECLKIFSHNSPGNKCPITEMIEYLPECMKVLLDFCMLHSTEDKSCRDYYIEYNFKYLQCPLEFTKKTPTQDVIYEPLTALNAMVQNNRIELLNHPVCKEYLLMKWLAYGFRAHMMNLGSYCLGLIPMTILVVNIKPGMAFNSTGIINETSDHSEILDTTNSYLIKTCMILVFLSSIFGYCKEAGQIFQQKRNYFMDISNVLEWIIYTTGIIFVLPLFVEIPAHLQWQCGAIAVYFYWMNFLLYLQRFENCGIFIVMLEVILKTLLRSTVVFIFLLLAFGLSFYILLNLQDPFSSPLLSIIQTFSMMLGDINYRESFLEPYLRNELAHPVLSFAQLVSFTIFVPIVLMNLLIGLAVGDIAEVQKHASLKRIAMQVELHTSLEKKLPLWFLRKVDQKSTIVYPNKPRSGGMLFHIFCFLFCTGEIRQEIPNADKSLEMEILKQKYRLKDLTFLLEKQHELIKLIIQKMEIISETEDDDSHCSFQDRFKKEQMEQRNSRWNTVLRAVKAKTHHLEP
Sequence of Transient receptor potential cation channel subfamily V member 1 (Q8NER1 whole entry): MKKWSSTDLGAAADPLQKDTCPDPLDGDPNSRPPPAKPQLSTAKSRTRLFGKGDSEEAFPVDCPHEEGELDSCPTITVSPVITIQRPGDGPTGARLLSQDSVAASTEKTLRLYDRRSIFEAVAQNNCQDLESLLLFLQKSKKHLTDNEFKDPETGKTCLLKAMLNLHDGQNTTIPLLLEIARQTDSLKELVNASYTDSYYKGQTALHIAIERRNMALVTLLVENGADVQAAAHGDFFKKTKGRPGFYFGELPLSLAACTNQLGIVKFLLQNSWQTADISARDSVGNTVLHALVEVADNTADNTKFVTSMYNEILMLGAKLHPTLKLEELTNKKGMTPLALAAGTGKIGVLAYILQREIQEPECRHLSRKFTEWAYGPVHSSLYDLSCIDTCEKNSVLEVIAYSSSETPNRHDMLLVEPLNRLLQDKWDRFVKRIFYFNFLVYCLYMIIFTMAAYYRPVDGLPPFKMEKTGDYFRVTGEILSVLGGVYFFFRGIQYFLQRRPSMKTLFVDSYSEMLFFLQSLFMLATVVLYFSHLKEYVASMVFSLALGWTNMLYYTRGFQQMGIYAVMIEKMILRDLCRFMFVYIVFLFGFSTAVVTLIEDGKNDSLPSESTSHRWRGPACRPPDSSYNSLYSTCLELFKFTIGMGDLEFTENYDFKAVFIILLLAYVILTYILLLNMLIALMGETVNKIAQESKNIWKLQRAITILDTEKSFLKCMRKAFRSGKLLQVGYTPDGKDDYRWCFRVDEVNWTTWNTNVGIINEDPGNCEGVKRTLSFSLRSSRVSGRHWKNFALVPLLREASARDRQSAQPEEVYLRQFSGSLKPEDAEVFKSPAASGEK

Structure (SMILES) | IC50 [1] [µM] | IC50 [2] [µM] | IC50 [3] [µM] | IC50 [4] [µM] | IC50 [5] [µM] | IC50 [6] [µM] | IC50 [7] [µM] | IC50 [8] [µM] | EC50 [9] [µM] | IC50 [10] [µM] | IC50 [11] [µM] | IC50 [12] [µM] | IC50 [13] [µM]
CC(C)c1ccc(NC(=O)Cn2cnc3c2c(=O)n(C)c(=O)n3C)cc1 | > 20 | 6.2 | 5.3 | 4.9 | 1.8 | > 30 | 7.5 | > 10 | 1000 | > 10 | – | – | –
CCC(C)c1ccc(NC(=O)Cn2cnc3c2c(=O)n(C)c(=O)n3C)cc1 (stereo not given) | – | 14.3 | – | – | – | – | – | – | 2500 | – | 18.7 | – | –
CC(=C\c1ccc(Cl)cc1)/C(C)=N/O [AP18 5] | – | – | – | – | – | – | – | – | – | – | – | 3.1 | 4.5

From ChEMBL document CHEMBL1155439, “Transient receptor potential ankyrin 1 (TRPA1) channel as emerging target for novel analgesics and anti-inflammatory agents” (J Med Chem, 2010)
